Among the data in patent US12473282B2, “Biphenyl fluorine double bond derivative, preparation method therefor, and pharmaceutical application thereof” (Abbisko Therapeutics Co., Ltd., priority 2020, dated 2025) are EC50 values, retold here.

For orientation: EC50 means the midpoint of the concentration-response curve.

This test in a line: Jurkat reporter gene cellular assay. The test is classed as cell-based. The settings on record: Homo sapiens; Jurkat/NF-κB-luc/PD1 + Raji-PD-L1 coculture, OKT3 1 μg/mL, 6 hrs, activation fold; read-out: Cell Activity EC50. On the procedure: The effect of compounds of the examples of the present invention and positive compounds on the interaction between PD-1 and PD-L1 expressed on cell surfaces, and the related influence on T cell functions, were determined by a Jurkat reporter gene cellular assay.
Briefly, the reporter gene plasmid of NF-κB-luc and the plasmid of human PD-1 were transfected into Jurkat cells to establish a stably transfected cell line capable of stably expressing both PD-1 and NF-κB-Luc reporter genes; the expression level of PD-1 on the cell surface was confirmed by flow cytometry; and the expression of the reporter gene was confirmed via the response of the reporter gene stimulated by OKT-3 and Raiji cells.
In addition, the plasmid of human PD-L1 was transfected into Raji cells to obtain a cell line capable of stably expressing PD-L1. Jurkat/NF-κB-luc/PD1 cells and Raji-PD-L1 cells were then cocultured and stimulated with OKT-3. On this basis, the compounds were added, and the enhancement of the signal pathway of T cell activation by the inhibitory effect of the compounds on the interaction between PD-1 and PD-L1 was evaluated by readings of reporter gene responses. The specific experimental process was as follows: • 1. 30 μL of compound or antibody solution was added to each well of a white 96-well plate (corning, 3610) at different diluted concentrations, and 10 μL of OKT3 (Biolegend, 317326) was then added (the final concentration of OKT3: 1 μg/mL); • 2. 20 μL of Raji-PD-L1 cell suspension was added to each well with 5*10^4 cells for each well, and was incubated in an incubator for 20 min; • 3. 20 μL of Jurkat/NF-Kb-luc/PD-1 cell suspension was added to each well with 5*10^4 cells for each well, and well mixed, and 6 hrs later, Bright-glo (Promega, E2620) was applied and plates were read on Envision; • 4. The reading of each well treated with the compound was compared with the reading of each well treated with DMSO to obtain the activation fold of the compound; • 5. EC50 values of compounds and positive compounds of the examples of the present invention were determined by non-linear regression analysis of activation folds at different compound concentrations.
For the compound `COc1cc(/C(F)=C/c2cccc(-c3cccc(NC(=O)c4nc5c(n4C)CCN(CCC46CCC(C(=O)O)(CC4)C6)C5)c3Cl)c2Cl)ncc1CN1CCC[C@H]1C(C)(C)O` [Example 52, (S,Z)-4-(2-(2-((2,2′-dichloro-3′-(2-fluoro-2-(5-((2-(2-hydroxypropan-2-yl)pyrrolidin-1-yl)methyl)-4-methoxypyridin-2-yl)vinyl)-[1,1′-biphenyl]-3-yl)carbamoyl)-1-methyl-1,4,6,7-tetrahydro-5H-imidazo [4,5-c]pyridin-5-yl)ethyl)bicyclo[2.2.1]heptane-1-carboxylic acid], the EC50 stood at 116 nM.
For the compound `COc1cc(/C(F)=C/c2cccc(-c3cccc(NC(=O)c4nc5c(n4C)CCN(CCC46CCC(C(=O)O)(CC4)C6)C5)c3Cl)c2Cl)ncc1CNC12CC3CC(CC(C3)C1)C2` [Example 53, (Z)-4-(2-(2-((3′-(2-(5-((adamantan-1-ylamino)methyl)-4-methoxypyridin-2-yl)-2-fluorovinyl)-2,2′-dichloro-[1,1′-biphenyl]-3-yl)carbamoyl)-1-methyl-1,4,6,7-tetrahydro-5H-imidazo[4,5-c]pyridin-5-yl)ethyl)bicyclo[2.2.1]heptane-1-carboxylic acid], the EC50 was 1040 nM.
Under `COc1cc(/C(F)=C/c2cccc(-c3cccc(NC(=O)c4nc5c(n4C)CCN(CCC46CCC(C(=O)O)(CC4)C6)C5)c3Cl)c2Cl)ncc1CN(C)CCN(C)C` [Example 54, (Z)-4-(2-(2-((2,2′-dichloro-3′-(2-(5-(((2-(dimethylamino)ethyl)(methyl)amino)methyl)-4-methoxypyridin-2-yl)-2-fluorovinyl)-[1,1′-biphenyl]-3-yl)carbamoyl)-1-methyl-1,4,6,7-tetrahydro-5H-imidazo [4,5-c]pyridin-5-yl)ethyl)bicyclo[2.2.1]heptane-1-carboxylic acid] stands 250 nM; under `COc1cc(/C(F)=C/c2cccc(-c3cccc(NC(=O)c4nc5c(n4C)CCN(CCC46CCC(C(=O)O)(CC4)C6)C5)c3Cl)c2Cl)ncc1CN1CCC2(CCC2)C1` [Example 55, (Z)-4-(2-(2-((3′-(2-(5-((6-azaspiro[3.4]octan-6-yl)methyl)-4-methoxypyridin-2-yl)-2-fluorovinyl)-2,2′-dichloro-[1,1′-biphenyl]-3-yl)carbamoyl)-1-methyl-1,4,6,7-tetrahydro-5H-imidazo[4,5-c]pyridin-5-yl)ethyl)bicyclo[2.2.1]heptane-1-carboxylic acid], 149 nM; under `COc1cc(/C(F)=C/c2cccc(-c3cccc(NC(=O)c4nc5c(n4C)CCN(CCC46CCC(C(=O)O)(CC4)C6)C5)c3Cl)c2Cl)ncc1CN1CC[C@@H](C)C1` [Example 56, (R,Z)-4-(2-(2-((2,2′-dichloro-3′-(2-fluoro-2-(4-methoxy-5-((3-methylpyrrolidin-1-yl)methyl)pyridin-2-yl)vinyl)-[1,1′-biphenyl]-3-yl)carbamoyl)-1-methyl-1,4,6,7-tetrahydro-5H-imidazo[4,5-c]pyridin-5-yl)ethyl)bicyclo[2.2.1]heptane-1-carboxylic acid], 61.4 nM.
In the case of `COc1cc(/C(F)=C/c2cccc(-c3cccc(NC(=O)c4nc5c(n4C)CCN(CCC46CCC(C(=O)O)(CC4)C6)C5)c3Cl)c2Cl)ncc1CN1C[C@@H](O)[C@H](F)C1` [Example 57, 4-(2-(2-((2,2′-dichloro-3′-((Z)-2-fluoro-2-(5-(((3R,4R)-3-fluoro-4-hydroxypyrrolidin-1-yl)methyl)-4-methoxypyridin-2-yl)vinyl)-[1,1-biphenyl]-3-yl)carbamoyl)-1-methyl-1,4,6,7-tetrahydro-5H-imidazo [4,5-c]pyridin-5-yl)ethyl)bicyclo[2.2.1]heptane-1-carboxylic acid] it was 72 nM; in that of `COc1cc(/C(F)=C/c2cccc(-c3cccc(NC(=O)c4nc5c(n4C)CCN(CCC46CCC(C(=O)O)(CC4)C6)C5)c3Cl)c2Cl)ncc1CN1CC[C@@H](F)C1` [Example 60, (R,Z)-4-(2-(2-((2,2′-dichloro-3′-(2-fluoro-2-(5-((3-fluoropyrrolidin-1-yl)methyl)-4-methoxypyridin-2-yl)vinyl)-[1,1′-biphenyl]-3-yl)carbamoyl)-1-methyl-1,4,6,7-tetrahydro-5H-imidazo[4,5-c]pyridin-5-yl)ethyl)bicyclo[2.2.1]heptane-1-carboxylic acid], 134 nM.
For `COc1cc(/C(F)=C/c2cccc(-c3cccc(NC(=O)c4nc5c(n4C)CCN(CCC46CCC(C(=O)O)(CC4)C6)C5)c3Cl)c2Cl)ncc1CN1CCC(O)(C(F)(F)F)C1` (centres unmarked) [Example 61, (Z)-4-(2-(2-((2,2′-dichloro-3′-(2-fluoro-2-(5-((3-hydroxy-3-(trifluoromethyl)pyrrolidin-1-yl)methyl)-4-methoxypyridin-2-yl)vinyl)-[1,1′-biphenyl]-3-yl)carbamoyl)-1-methyl-1,4,6,7-tetrahydro-5H-imidazo [4,5-c]pyridin-5-yl)ethyl)bicyclo[2.2.1]heptane-1-carboxylic acid], the EC50 was determined as 522 nM.
In the case of `COc1cc(/C(F)=C/c2cccc(-c3cccc(NC(=O)c4nc5c(n4C)CCN(CCC46CCC(C(=O)O)(CC4)C6)C5)c3Cl)c2Cl)ncc1CN1CCC2(CC(O)C2)C1` (centres unmarked) [Example 62, (Z)-4-(2-(2-((2,2′-dichloro-3′-(2-fluoro-2-(5-((2-hydroxy-6-azaspiro [3.4]octan-6-yl)methyl)-4-methoxypyridin-2-yl)vinyl)-[1,1′-biphenyl]-3-yl)carbamoyl)-1-methyl-1,4,6,7-tetrahydro-5H-imidazo[4,5-c]pyridin-5-yl)ethyl)bicyclo[2.2.1]heptane-1-carboxylic acid] it was 117 nM; in that of `COc1cc(/C(F)=C/c2cccc(-c3cccc(NC(=O)c4nc5c(n4C)CCN(CCC46CCC(C(=O)O)(CC4)C6)C5)c3Cl)c2Cl)ncc1CN(C)C(C)C` [Example 63, (Z)-4-(2-(2-((2,2′-dichloro-3′-(2-fluoro-2-(5-((isopropyl(methyl)amino)methyl)-4-methoxypyridin-2-yl)vinyl)-[1,1′-biphenyl]-3-yl)carbamoyl)-1-methyl-1,4,6,7-tetrahydro-5H-imidazo[4,5-c]pyridin-5-yl)ethyl)bicyclo[2.2.1]heptane-1-carboxylic acid], 159 nM.
In the case of `COc1cc(/C(F)=C/c2cccc(-c3cccc(NC(=O)c4nc5c(n4C)CCN(CCC46CCC(C(=O)O)(CC4)C6)C5)c3Cl)c2Cl)ncc1CN1CCC(C)(C)C1` [Example 64, (Z)-4-(2-(2-((2,2′-dichloro-3′-(2-(5-((3,3-dimethylpyrrolidin-1-yl)methyl)-4-methoxypyridin-2-yl)-2-fluorovinyl)-[1,1′-biphenyl]-3-yl)carbamoyl)-1-methyl-1,4,6,7-tetrahydro-5H-imidazo[4,5-c]pyridin-5-yl)ethyl)bicyclo[2.2.1]heptane-1-carboxylic acid] it was 113 nM; in that of `COc1cc(/C(F)=C/c2cccc(-c3cccc(NC(=O)c4nc5c(n4C)CCN(CCC46CCC(C(=O)O)(CC4)C6)C5)c3Cl)c2Cl)ncc1CN1CCCCC1` [Example 65, (Z)-4-(2-(2-((2,2′-dichloro-3′-(2-fluoro-2-(4-methoxy-5-(piperidin-1-ylmethyl)pyridin-2-yl)vinyl)-[1,1′-biphenyl]-3-yl)carbamoyl)-1-methyl-1,4,6,7-tetrahydro-5H-imidazo[4,5-c]pyridin-5-yl)ethyl) bicyclo[2.2.1]heptane-1-carboxylic acid], 137 nM; in that of `COc1cc(/C(F)=C/c2cccc(-c3cccc(NC(=O)c4nc5c(n4C)CCN(CCC46CCC(C(=O)O)(CC4)C6)C5)c3Cl)c2Cl)ncc1CN1CC[C@@H](N(C)C)C1` [Example 66, (R,Z)-4-(2-(2-((2,2′-dichloro-3′-(2-(5-((3-(dimethylamino)pyrrolidin-1-yl)methyl)-4-methoxypyridin-2-yl)-2-fluorovinyl)-[1,1′-biphenyl]-3-yl)carbamoyl)-1-methyl-1,4,6,7-tetrahydro-5H-imidazo[4,5-c]pyridin-5-yl)ethyl)bicyclo[2.2.1]heptane-1-carboxylic acid], 347 nM.
Regarding `COc1cc(/C(F)=C/c2cccc(-c3cccc(NC(=O)c4nc5c(n4C)CCN(CCC46CCC(C(=O)O)(CC4)C6)C5)c3Cl)c2Cl)ncc1CN1CCCC1(C)C` [Example 67, (Z)-4-(2-(2-((2,2′-dichloro-3′-(2-(5-((2,2-dimethylpyrrolidin-1-yl)methyl)-4-methoxypyridin-2-yl)-2-fluorovinyl)-[1,1′-biphenyl]-3-yl)carbamoyl)-1-methyl-1,4,6,7-tetrahydro-5H-imidazo[4,5-c]pyridin-5-yl)ethyl)bicyclo[2.2.1]heptane-1-carboxylic acid], the EC50 came to 54.1 nM.
